In PubChem BioAssay (NCI):
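Five compound concentrations were applied to cells in 96-well plates for 48 hours; endpoints were derived by simple linear interpolation of the resulting dose-response curve. The concentration for 50% growth inhibition is given as GI50. Definition used: TGI = concentration required for complete inhibition of growth.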

What was measured:
Assay in all cases: growth of human tumour cells (NCI), 48 h
RXF 393 renal = system: RXF 393 renal
COLO 205 colon = system: COLO 205 colon
SK-OV-3 ovarian = system: SK-OV-3 ovarian
SF-539 CNS = system: SF-539 CNS
EKVX NSCLC = system: EKVX NSCLC
MALME-3M melanoma = system: MALME-3M melanoma
LOX IMVI melanoma = system: LOX IMVI melanoma
OVCAR-4 ovarian = system: OVCAR-4 ovarian
TK-10 renal = system: TK-10 renal
SK-MEL-28 melanoma = system: SK-MEL-28 melanoma
SK-MEL-2 melanoma = system: SK-MEL-2 melanoma
SF-295 CNS = system: SF-295 CNS
A549 NSCLC = system: A549 NSCLC
DU-145 prostate = system: DU-145 prostate
SR leukemia = system: SR leukemia
HL-60(TB) leukemia = system: HL-60(TB) leukemia
786-0 renal = system: 786-0 renal
NCI-H23 lung = system: NCI-H23 lung
K-562 leukemia = system: K-562 leukemia
RPMI-8226 leukemia = system: RPMI-8226 leukemia
IGROV1 ovarian = system: IGROV1 ovarian
CCRF-CEM leukemia = system: CCRF-CEM leukemia
HOP-62 NSCLC = system: HOP-62 NSCLC
U251 CNS = system: U251 CNS
SW-620 colon = system: SW-620 colon
M14 melanoma = system: M14 melanoma
T-47D breast = system: T-47D breast
OVCAR-3 ovarian = system: OVCAR-3 ovarian
BT-549 breast = system: BT-549 breast
ACHN renal = system: ACHN renal
HS 578T breast = system: HS 578T breast
SK-MEL-5 melanoma = system: SK-MEL-5 melanoma
HCT-15 colon = system: HCT-15 colon
HCC-2998 colon = system: HCC-2998 colon
SF-268 CNS = system: SF-268 CNS
UACC-62 melanoma = system: UACC-62 melanoma
SNB-19 CNS = system: SNB-19 CNS
MCF7 breast = system: MCF7 breast
HCT-116 colon = system: HCT-116 colon
UO-31 renal = system: UO-31 renal
OVCAR-5 ovarian = system: OVCAR-5 ovarian
CAKI-1 renal = system: CAKI-1 renal
NCI/ADR-RES ovarian = system: NCI/ADR-RES ovarian
KM12 colon = system: KM12 colon
MDA-MB-435 = system: MDA-MB-435
NCI-H522 lung = system: NCI-H522 lung
MDA-MB-231 breast = system: MDA-MB-231 breast
A498 renal = system: A498 renal
UACC-257 melanoma = system: UACC-257 melanoma
SN12C renal = system: SN12C renal
SNB-75 CNS = system: SNB-75 CNS
NCI-H460 lung = system: NCI-H460 lung
OVCAR-8 ovarian = system: OVCAR-8 ovarian
PC-3 prostate = system: PC-3 prostate
MOLT-4 leukemia = system: MOLT-4 leukemia
HOP-92 NSCLC = system: HOP-92 NSCLC
MDA-N = system: MDA-N
HT29 colon = system: HT29 colon

N#CC(C#N)=C/C=C(\Sc1ccc(F)cc1Cl)c1ccc(Cl)cc1
GI50 (RXF 393 renal): 2.94 µM
TGI (RXF 393 renal): > 100 µM
GI50 (COLO 205 colon): 0.515 µM
TGI (COLO 205 colon): 5.02 µM
GI50 (SK-OV-3 ovarian): 2.8 µM
TGI (SK-OV-3 ovarian): 23.4 µM
GI50 (SF-539 CNS): 0.391 µM
TGI (SF-539 CNS): 3.59 µM
GI50 (EKVX NSCLC): 8.42 µM
TGI (EKVX NSCLC): 26.9 µM
GI50 (MALME-3M melanoma): 0.406 µM
TGI (MALME-3M melanoma): 1.72 µM
GI50 (LOX IMVI melanoma): 0.318 µM
TGI (LOX IMVI melanoma): 1.3 µM
GI50 (OVCAR-4 ovarian): 4.97 µM
TGI (OVCAR-4 ovarian): > 64.2 µM
GI50 (TK-10 renal): 0.5 µM
TGI (TK-10 renal): 2.08 µM
GI50 (SK-MEL-28 melanoma): 1.23 µM
TGI (SK-MEL-28 melanoma): 10.4 µM
GI50 (SK-MEL-2 melanoma): 1.45 µM
TGI (SK-MEL-2 melanoma): 8.17 µM
GI50 (SF-295 CNS): 0.639 µM
TGI (SF-295 CNS): 6.79 µM
GI50 (A549 NSCLC): 2.22 µM
TGI (A549 NSCLC): 12.5 µM
GI50 (DU-145 prostate): 0.657 µM
TGI (DU-145 prostate): 8.55 µM
GI50 (SR leukemia): 0.0756 µM
TGI (SR leukemia): > 100 µM
GI50 (HL-60(TB) leukemia): 0.52 µM
TGI (HL-60(TB) leukemia): 49.2 µM
GI50 (786-0 renal): 0.523 µM
TGI (786-0 renal): 2.39 µM
GI50 (NCI-H23 lung): 0.449 µM
TGI (NCI-H23 lung): 2.49 µM
GI50 (K-562 leukemia): 0.432 µM
TGI (K-562 leukemia): > 100 µM
GI50 (RPMI-8226 leukemia): 0.0963 µM
TGI (RPMI-8226 leukemia): 0.515 µM
GI50 (IGROV1 ovarian): 1.81 µM
TGI (IGROV1 ovarian): > 54.5 µM
GI50 (CCRF-CEM leukemia): 0.107 µM
GI50 (HOP-62 NSCLC): 0.904 µM
TGI (HOP-62 NSCLC): 3.42 µM
GI50 (U251 CNS): 0.414 µM
TGI (U251 CNS): 1.69 µM
GI50 (SW-620 colon): 0.387 µM
TGI (SW-620 colon): 3.82 µM
GI50 (M14 melanoma): 0.433 µM
TGI (M14 melanoma): 2.03 µM
GI50 (T-47D breast): 0.659 µM
TGI (T-47D breast): 5.19 µM
GI50 (OVCAR-3 ovarian): 0.762 µM
TGI (OVCAR-3 ovarian): 2.64 µM
GI50 (BT-549 breast): 0.598 µM
TGI (BT-549 breast): 3.7 µM
GI50 (ACHN renal): 0.883 µM
TGI (ACHN renal): 2.14 µM
GI50 (HS 578T breast): 1.53 µM
TGI (HS 578T breast): 28.2 µM
GI50 (SK-MEL-5 melanoma): 2.59 µM
TGI (SK-MEL-5 melanoma): 8.58 µM
GI50 (HCT-15 colon): 0.425 µM
TGI (HCT-15 colon): 1.58 µM
GI50 (HCC-2998 colon): 2.3 µM
TGI (HCC-2998 colon): 4.54 µM
GI50 (SF-268 CNS): 0.457 µM
TGI (SF-268 CNS): 1.9 µM
GI50 (UACC-62 melanoma): 2.18 µM
TGI (UACC-62 melanoma): 6.16 µM
GI50 (SNB-19 CNS): 4.54 µM
TGI (SNB-19 CNS): 23.6 µM
GI50 (MCF7 breast): 0.417 µM
TGI (MCF7 breast): 2.55 µM
GI50 (HCT-116 colon): 0.366 µM
TGI (HCT-116 colon): 1.89 µM
GI50 (UO-31 renal): 1.78 µM
TGI (UO-31 renal): > 40.3 µM
GI50 (OVCAR-5 ovarian): 0.605 µM
TGI (OVCAR-5 ovarian): 2.61 µM
GI50 (CAKI-1 renal): 0.427 µM
TGI (CAKI-1 renal): 3.61 µM
GI50 (NCI/ADR-RES ovarian): 0.791 µM
TGI (NCI/ADR-RES ovarian): 7.53 µM
GI50 (KM12 colon): 0.714 µM
TGI (KM12 colon): 2.79 µM
GI50 (MDA-MB-435): 0.35 µM
TGI (MDA-MB-435): 1.73 µM
GI50 (NCI-H522 lung): 1.93 µM
TGI (NCI-H522 lung): 10.8 µM
GI50 (MDA-MB-231 breast): 0.478 µM
TGI (MDA-MB-231 breast): 2.27 µM
GI50 (A498 renal): 8.97 µM
TGI (A498 renal): 24 µM
GI50 (UACC-257 melanoma): 1.8 µM
TGI (UACC-257 melanoma): 4.76 µM
GI50 (SN12C renal): 0.365 µM
TGI (SN12C renal): 1.34 µM
GI50 (SNB-75 CNS): 10.3 µM
TGI (SNB-75 CNS): 31 µM
GI50 (NCI-H460 lung): 0.763 µM
TGI (NCI-H460 lung): 4.82 µM
GI50 (OVCAR-8 ovarian): 0.601 µM
TGI (OVCAR-8 ovarian): 6.46 µM
GI50 (PC-3 prostate): 1.42 µM
TGI (PC-3 prostate): 10.4 µM
GI50 (MOLT-4 leukemia): 0.194 µM
TGI (MOLT-4 leukemia): > 100 µM

CNc1ncnc2c1nc(NC1CCCC1)n2C1OC(CO)C(O)C1O (stereo not given)
TGI (RXF 393 renal): > 100 µM
TGI (COLO 205 colon): > 100 µM
TGI (SK-OV-3 ovarian): > 100 µM
TGI (SF-539 CNS): > 100 µM
TGI (MALME-3M melanoma): > 100 µM
TGI (OVCAR-4 ovarian): > 100 µM
TGI (TK-10 renal): > 100 µM
TGI (SK-MEL-28 melanoma): > 100 µM
TGI (SK-MEL-2 melanoma): > 100 µM
TGI (SF-295 CNS): > 100 µM
TGI (A549 NSCLC): > 100 µM
TGI (DU-145 prostate): > 100 µM
TGI (786-0 renal): > 100 µM
TGI (NCI-H23 lung): > 100 µM
TGI (HOP-62 NSCLC): > 100 µM
TGI (U251 CNS): > 100 µM
TGI (SW-620 colon): > 100 µM
TGI (M14 melanoma): > 100 µM
TGI (T-47D breast): > 100 µM
TGI (OVCAR-3 ovarian): > 100 µM
TGI (ACHN renal): > 100 µM
TGI (SK-MEL-5 melanoma): > 100 µM
TGI (HCT-15 colon): > 100 µM
TGI (HCC-2998 colon): > 100 µM
TGI (SF-268 CNS): > 100 µM
TGI (UACC-62 melanoma): > 100 µM
TGI (SNB-19 CNS): > 100 µM
TGI (MCF7 breast): > 100 µM
TGI (HCT-116 colon): > 100 µM
TGI (UO-31 renal): > 100 µM
TGI (OVCAR-5 ovarian): > 100 µM
TGI (HOP-92 NSCLC): > 100 µM
TGI (CAKI-1 renal): > 100 µM
TGI (NCI/ADR-RES ovarian): > 100 µM
TGI (MDA-N): > 100 µM
TGI (KM12 colon): > 100 µM
TGI (MDA-MB-435): > 100 µM
TGI (NCI-H522 lung): > 100 µM
TGI (MDA-MB-231 breast): > 100 µM
TGI (A498 renal): > 100 µM
TGI (SN12C renal): > 100 µM
TGI (NCI-H460 lung): > 100 µM
TGI (OVCAR-8 ovarian): > 100 µM
TGI (PC-3 prostate): > 100 µM
TGI (MOLT-4 leukemia): > 100 µM
TGI (HT29 colon): > 100 µM
